# Laboratory results published in article PMC3233971 (Amino acids, 2010).
# Residues, ends and D or L forms follow the SMILES beside them. No end group written: not given here. *: point of attachment. IRDye800CW = CC1(C)C(/C=C/C2=C(Oc3ccc(S(=O)(=O)O)cc3)C(=C/C=C3/N(CCCCS(=O)(=O)O)c4ccc(S(=O)(=O)O)cc4C3(C)C)/CCC2)=[N+](CCCCCC(=O)*)c2ccc(S(=O)(=O)[O-])cc21
# Columns and labels:
# [1] = tested on: LS174T tumor; assay: Near-infrared fluorescence imaging of LS174T tumor-bearing mice; details: 4 h after i.v. injection; 1 nmol dye/mouse
# [2] = tested on: human umbilical endothelial cells (HUVEC); details: 300 μg/ml peptide, 48 h exposure, absorbance 570 nm, n = 6
# [3] = tested on: LS174T human colorectal cancer cells; details: 300 μg/ml peptide, 48 h exposure, absorbance 570 nm, n = 6
# [4] = tested on: LS174T tumor; type: in vivo, mouse; details: 20 mg/kg i.p. every other day, 3 doses; 12 days after the optical imaging
compound,measurement,setting,value
CC(C)C[C@H](NC(=O)[C@@H](NC(=O)[C@H](Cc1c[nH]c2ccccc12)NC(=O)CCCCC[N+]1=C(C=CC2=C(Oc3ccc(S(=O)(=O)O)cc3)C(=CC=C3N(CCCCS(=O)(=O)O)c4ccc(S(=O)(=O)O)cc4C3(C)C)CCC2)C(C)(C)c2cc(S(=O)(=O)[O-])ccc21)[C@@H](C)O)C(=O)N[C@@H](CCCNC(=N)N)C(=O)N1CCC[C@H]1C(=O)N[C@H](C(=O)N[C@@H](CC(C)C)C(=O)N[C@@H](Cc1c[nH]cn1)C(=O)N[C@H](C(=O)N[C@@H](CC(=O)O)C(=O)N[C@@H](Cc1c[nH]cn1)C(=O)N[C@@H](C)C(=O)O)[C@@H](C)O)[C@@H](C)O [scrambled peptide dye conjugate] (IRDye800CW-WTLRPTLHTDHA-OH; N-terminus and C-terminus assumed),renal clearance in NIR fluorescence images,[1],cleared through the kidneys much faster than the BRP peptide
LLADTTHHRPWT [BRP],cell viability (MTT),[2],92.2 ± 2.4%
same,cell viability (MTT),[3],98.3 ± 12.1%
bevacizumab: humanized monoclonal antibody directed against human VEGF,tumor volume,[4],476.6 mm^3
